Values quoted from earlier work, collected in article PMC4195943, “A novel small-molecule MRCK inhibitor blocks cancer cell invasion” (Cell Communication and Signaling : CCS, 2014).
pIC50: −log10 of the molar value.

Key:
[1] = target: Protein Kinase C; design: method as in PMID 2244923; details: read-out: in vitro IC50, Protein Kinase C; cited from earlier work
[2] = target: MRCKα (Homo sapiens, UniProt Q5VT25); design: method as in PMID 21457715; details: read-out: in vitro IC50, MRCKα; cited from earlier work
Sequence of MRCKα (Q5VT25 whole entry): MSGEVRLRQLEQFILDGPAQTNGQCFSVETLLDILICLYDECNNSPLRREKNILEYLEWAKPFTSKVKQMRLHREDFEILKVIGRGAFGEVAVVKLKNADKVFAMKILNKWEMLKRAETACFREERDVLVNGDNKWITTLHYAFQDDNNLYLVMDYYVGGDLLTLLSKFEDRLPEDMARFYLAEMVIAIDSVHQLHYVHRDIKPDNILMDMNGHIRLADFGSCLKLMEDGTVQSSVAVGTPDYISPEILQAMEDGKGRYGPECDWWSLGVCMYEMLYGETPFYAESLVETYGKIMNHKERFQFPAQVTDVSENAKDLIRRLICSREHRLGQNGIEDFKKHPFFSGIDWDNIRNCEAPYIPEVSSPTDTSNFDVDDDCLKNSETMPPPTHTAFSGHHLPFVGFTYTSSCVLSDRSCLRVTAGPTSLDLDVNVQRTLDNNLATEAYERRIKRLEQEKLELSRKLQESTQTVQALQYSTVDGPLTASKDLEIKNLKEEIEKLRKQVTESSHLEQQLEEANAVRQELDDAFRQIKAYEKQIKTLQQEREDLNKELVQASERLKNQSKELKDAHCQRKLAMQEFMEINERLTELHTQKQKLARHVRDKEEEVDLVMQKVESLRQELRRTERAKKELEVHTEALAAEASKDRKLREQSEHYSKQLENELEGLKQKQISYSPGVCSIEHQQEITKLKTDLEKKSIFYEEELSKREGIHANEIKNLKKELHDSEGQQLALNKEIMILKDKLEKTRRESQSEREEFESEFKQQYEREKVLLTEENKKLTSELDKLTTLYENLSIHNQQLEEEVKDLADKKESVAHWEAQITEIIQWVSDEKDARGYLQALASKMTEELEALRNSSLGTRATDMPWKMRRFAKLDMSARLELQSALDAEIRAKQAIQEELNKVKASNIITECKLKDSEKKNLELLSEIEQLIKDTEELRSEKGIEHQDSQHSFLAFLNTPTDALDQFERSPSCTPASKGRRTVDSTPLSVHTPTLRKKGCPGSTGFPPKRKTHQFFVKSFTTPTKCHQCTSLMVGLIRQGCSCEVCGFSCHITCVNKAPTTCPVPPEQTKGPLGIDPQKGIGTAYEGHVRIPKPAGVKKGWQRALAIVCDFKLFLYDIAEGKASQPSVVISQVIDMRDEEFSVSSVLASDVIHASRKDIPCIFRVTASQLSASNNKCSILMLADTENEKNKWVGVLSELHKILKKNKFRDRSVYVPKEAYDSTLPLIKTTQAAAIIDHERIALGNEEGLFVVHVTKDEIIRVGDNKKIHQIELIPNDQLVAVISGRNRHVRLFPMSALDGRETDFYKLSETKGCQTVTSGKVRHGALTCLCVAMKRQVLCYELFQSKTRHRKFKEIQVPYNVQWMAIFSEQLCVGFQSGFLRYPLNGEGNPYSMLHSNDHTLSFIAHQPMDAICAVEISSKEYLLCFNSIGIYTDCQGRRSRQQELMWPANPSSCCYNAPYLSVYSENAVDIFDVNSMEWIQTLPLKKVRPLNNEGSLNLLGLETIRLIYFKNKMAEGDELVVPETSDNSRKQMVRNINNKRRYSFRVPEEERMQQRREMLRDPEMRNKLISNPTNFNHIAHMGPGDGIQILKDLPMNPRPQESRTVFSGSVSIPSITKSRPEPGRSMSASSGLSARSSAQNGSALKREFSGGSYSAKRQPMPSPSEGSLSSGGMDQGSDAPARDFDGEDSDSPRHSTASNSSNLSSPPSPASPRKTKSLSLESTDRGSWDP

In the case of `COc1ccc2c(c[n+](C)c3c4cc5c(cc4ccc23)OCO5)c1OC` [Chelerythrine], the pIC50 [1] is listed as 6.18 and the pIC50 [2] is listed as 5.75.
